From patent publication US20240043427A1 (Gilead Sciences, Inc., priority 2020, published 2024)

Experiments:
CD73 [1] = molecular target: T1, CD73 (Homo sapiens (Human), UniProt P21589); experiment: MDA-MB-231 Cell Based CD73 Activity Assay (DMEM); conditions: MDA-MB-231-GFP cells, DMEM medium with 10% human plasma, 200 uM AMP
CD73 [2] = molecular target: T1, CD73; assay type: biochemical; conditions: 1 mM NaH2PO4 in enzyme buffer, CD73 0.3 nM, AMP 15 uM

T1 sequence (P21589 27-574): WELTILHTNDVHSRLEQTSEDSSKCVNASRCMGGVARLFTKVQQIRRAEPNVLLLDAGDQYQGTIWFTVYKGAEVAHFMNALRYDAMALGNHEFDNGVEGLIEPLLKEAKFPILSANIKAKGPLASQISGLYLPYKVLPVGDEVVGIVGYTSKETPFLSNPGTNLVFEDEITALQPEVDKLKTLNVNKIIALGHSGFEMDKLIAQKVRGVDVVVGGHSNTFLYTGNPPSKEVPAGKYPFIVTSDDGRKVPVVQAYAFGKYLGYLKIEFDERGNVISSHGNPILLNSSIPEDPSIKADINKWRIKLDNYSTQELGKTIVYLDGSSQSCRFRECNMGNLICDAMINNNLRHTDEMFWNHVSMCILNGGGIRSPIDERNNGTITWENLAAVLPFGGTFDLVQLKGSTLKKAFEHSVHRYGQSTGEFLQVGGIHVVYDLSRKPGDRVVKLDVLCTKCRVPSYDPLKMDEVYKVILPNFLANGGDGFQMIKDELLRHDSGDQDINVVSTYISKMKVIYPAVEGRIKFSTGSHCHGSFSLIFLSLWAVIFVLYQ

EC50 (CD73 [1]) [nM]	IC50 (CD73 [2]) [nM]	SMILES
33.3	7.27	O=c1[nH]cc(-c2cc(N3C[C@@H](F)[C@@H](F)C3)c3ncc(F)n3n2)c(=O)[nH]1 [Example 177, 5-(8-((3R,4S)-3,4-difluoropyrrolidin-1-yl)-3-fluoroimidazo[1,2-b]pyridazin-6-yl)pyrimidine-2,4(1H,3H)-dione]
57.4	13.5	CC1(C(F)(F)F)CCN(c2cc(-c3c[nH]c(=O)[nH]c3=O)nn3ccnc23)C1 (stereo not drawn) [Example 185, 5-[8-[3-methyl-3-(trifluoromethyl)pyrrolidin-1-yl]imidazo[1,2-b]pyridazin-6-yl]-1H-pyrimidine-2,4-dione]
22.3	7.57	C[C@@]1(F)CCN(c2cc(-c3c[nH]c(=O)[nH]c3=O)nn3ccnc23)C1 [Example 186, 5-[8-[(3R)-3-fluoro-3-methyl-pyrrolidin-1-yl]imidazo[1,2-b]pyridazin-6-yl]-1H-pyrimidine-2,4-dione]
12.6	2.76	O=c1[nH]cc(-c2cc(N3CC[C@@H](OC(F)(F)F)C3)c3nccn3n2)c(=O)[nH]1 [Example 187, 5-[8-[(3R)-3-(trifluoromethoxy)pyrrolidin-1-yl]imidazo[1,2-b]pyridazin-6-yl]-1H-pyrimidine-2,4-dione]
62.5	17.5	COCC1(F)CCN(c2cc(-c3c[nH]c(=O)[nH]c3=O)nn3ccnc23)C1 (stereo not drawn) [Example 188, 5-[8-[3-fluoro-3-(methoxymethyl)pyrrolidin-1-yl]imidazo[1,2-b]pyridazin-6-yl]-1H-pyrimidine-2,4-dione]
49	18.1	COC1(C(F)(F)F)CCN(c2cc(-c3c[nH]c(=O)[nH]c3=O)nn3ccnc23)C1 (stereo not drawn) [Example 189, 5-[8-[3-methoxy-3-(trifluoromethyl)pyrrolidin-1-yl]imidazo[1,2-b]pyridazin-6-yl]-1H-pyrimidine-2,4-dione]
12.8	3.05	O=c1[nH]cc(-c2cc(N3CCC4(CC4)C3)c3nccn3n2)c(=O)[nH]1 [Example 190, 5-[8-(5-azaspiro[2.4]heptan-5-yl)imidazo[1,2-b]pyridazin-6-yl]-1H-pyrimidine-2,4-dione]
45.8	21.8	C[C@]1(F)CCN(c2cc(-c3c[nH]c(=O)[nH]c3=O)nn3ccnc23)C1 [Example 191, 5-[8-[(3S)-3-fluoro-3-methyl-pyrrolidin-1-yl]imidazo[1,2-b]pyridazin-6-yl]-1H-pyrimidine-2,4-dione]
682	151	C[C@@H]1CN(c2cc(-c3c[nH]c(=O)[nH]c3=O)nn3ccnc23)C[C@H]1C(F)(F)F [Example 193, 5-[8-[(3S,4S)-3-methyl-4-(trifluoromethyl)pyrrolidin-1-yl]imidazo[1,2-b]pyridazin-6-yl]-1H-pyrimidine-2,4-dione]
469	3.32	COc1ccc(C2CN(c3cc(-c4c[nH]c(=O)[nH]c4=O)nn4ccnc34)CC2(F)F)cc1 (stereo not drawn) [Example 194, 5-[8-[3,3-difluoro-4-(4-methoxyphenyl)pyrrolidin-1-yl]imidazo[1,2-b]pyridazin-6-yl]-1H-pyrimidine-2,4-dione]
218	62.9	N#CC1(F)CCN(c2cc(-c3c[nH]c(=O)[nH]c3=O)nn3ccnc23)C1 (stereo not drawn) [Example 195, 1-[6-(2,4-dioxo-1H-pyrimidin-5-yl)imidazo[1,2-b]pyridazin-8-yl]-3-fluoro-pyrrolidine-3-carbonitrile]
243	98.6	O=c1[nH]cc(-c2cc(N3CC[C@H](OC(F)(F)F)C3)c3nccn3n2)c(=O)[nH]1 [Example 196, 5-[8-[(3S)-3-(trifluoromethoxy)pyrrolidin-1-yl]imidazo[1,2-b]pyridazin-6-yl]-1H-pyrimidine-2,4-dione]
6.39	1.11	O=c1[nH]cc(-c2cc(N3C[C@H](OC(F)F)C(F)(F)C3)c3nccn3n2)c(=O)[nH]1 [Example 201, 5-[8-[(4S)-4-(difluoromethoxy)-3,3-difluoro-pyrrolidin-1-yl]imidazo[1,2-b]pyridazin-6-yl]-1H-pyrimidine-2,4-dione]
4.25	1.04	O=c1[nH]cc(-c2cc(N3CC(OC(F)F)C(F)(F)C3)c3nccn3n2)c(=O)[nH]1 (stereo not drawn) [Example 202, 5-[8-[4-(difluoromethoxy)-3,3-difluoro-pyrrolidin-1-yl]imidazo[1,2-b]pyridazin-6-yl]-1H-pyrimidine-2,4-dione]
10.3	3.03	COc1ncc(-c2cc(N3CC(OCC(F)(F)F)C(F)(F)C3)c3nccn3n2)c(OC)n1 (stereo not drawn) [Example 203, 8-[3,3-difluoro-4-(2,2,2-trifluoroethoxy)pyrrolidin-1-yl]-6-(2,4-dimethoxypyrimidin-5-yl)imidazo[1,2-b]pyridazine]
9.31	1.63	CN(C)C(=O)COC1CN(c2cc(-c3c[nH]c(=O)[nH]c3=O)nn3ccnc23)CC1(F)F (stereo not drawn) [Example 204, 2-[1-[6-(2,4-dioxo-1H-pyrimidin-5-yl)imidazo[1,2-b]pyridazin-8-yl]-4,4-difluoro-pyrrolidin-3-yl]oxy-N,N-dimethyl-acetamide]
16	4.42	CC(=O)NC1CN(c2cc(-c3c[nH]c(=O)[nH]c3=O)nn3ccnc23)CC1(F)F (stereo not drawn) [Example 205, N-[1-[6-(2,4-dioxo-1H-pyrimidin-5-yl)imidazo[1,2-b]pyridazin-8-yl]-4,4-difluoro-pyrrolidin-3-yl]acetamide]
28.7	4.97	O=C(NC1CN(c2cc(-c3c[nH]c(=O)[nH]c3=O)nn3ccnc23)CC1(F)F)OCC(F)(F)F (stereo not drawn) [Example 206, 2,2,2-trifluoroethyl N-[1-[6-(2,4-dioxo-1H-pyrimidin-5-yl)imidazo[1,2-b]pyridazin-8-yl]-4,4-difluoro-pyrrolidin-3-yl]carbamate]
20.3	6.05	O=C(NC1CN(c2cc(-c3c[nH]c(=O)[nH]c3=O)nn3ccnc23)CC1(F)F)OCC1CC1 (stereo not drawn) [Example 207, cyclopropylmethyl N-[1-[6-(2,4-dioxo-1H-pyrimidin-5-yl)imidazo[1,2-b]pyridazin-8-yl]-4,4-difluoro-pyrrolidin-3-yl]carbamate]
25.4	5.88	O=C(NC1CN(c2cc(-c3c[nH]c(=O)[nH]c3=O)nn3ccnc23)CC1(F)F)OCC(F)F (stereo not drawn) [Example 208, 2,2-difluoroethyl N-[1-[6-(2,4-dioxo-1H-pyrimidin-5-yl)imidazo[1,2-b]pyridazin-8-yl]-4,4-difluoro-pyrrolidin-3-yl]carbamate]
24.2	2.8	O=C(NC1CN(c2cc(-c3c[nH]c(=O)[nH]c3=O)nn3ccnc23)CC1(F)F)c1ccccc1 (stereo not drawn) [Example 209, N-[1-[6-(2,4-dioxo-1H-pyrimidin-5-yl)imidazo[1,2-b]pyridazin-8-yl]-4,4-difluoro-pyrrolidin-3-yl]benzamide]
24.4	4.59	O=C(NC1CN(c2cc(-c3c[nH]c(=O)[nH]c3=O)nn3ccnc23)CC1(F)F)c1ccc(C(F)(F)F)cc1 (stereo not drawn) [Example 210, N-[1-[6-(2,4-dioxo-1H-pyrimidin-5-yl)imidazo[1,2-b]pyridazin-8-yl]-4,4-difluoro-pyrrolidin-3-yl]-4-(trifluoromethyl)benzamide]
10.8	2.33	O=C(NC1CN(c2cc(-c3c[nH]c(=O)[nH]c3=O)nn3ccnc23)CC1(F)F)c1ccc(C(F)(F)F)cn1 (stereo not drawn) [Example 211, N-[1-[6-(2,4-dioxo-1H-pyrimidin-5-yl)imidazo[1,2-b]pyridazin-8-yl]-4,4-difluoro-pyrrolidin-3-yl]-5-(trifluoromethyl)pyridine-2-carboxamide]
12.1	1.41	O=c1[nH]cc(-c2cc([C@H]3C[C@@H]3c3ccc(C(F)F)cc3)n3nccc3n2)c(=O)[nH]1 [Example 215, 5-(7-((1S,2S)-2-(4-(difluoromethyl)phenyl)cyclopropyl)pyrazolo[1,5-a]pyrimidin-5-yl)pyrimidine-2,4(1H,3H)-dione]
31.7	8.01	CC1(C)CN(c2cc(-c3c[nH]c(=O)[nH]c3=O)nc3ccnn23)CC1(F)F [Example 216, 5-(7-(3,3-difluoro-4,4-dimethylpyrrolidin-1-yl)pyrazolo[1,5-a]pyrimidin-5-yl)pyrimidine-2,4(1H,3H)-dione]
584	111	CCc1cnn2c(N3CC(C)(C)C(F)(F)C3)cc(-c3c[nH]c(=O)[nH]c3=O)nc12 [Example 217, 5-(7-(3,3-difluoro-4,4-dimethylpyrrolidin-1-yl)-3-ethylpyrazolo[1,5-a]pyrimidin-5-yl)pyrimidine-2,4(1H,3H)-dione]
455	3.29	O=c1[nH]cc(-c2cc(N3CC(F)(F)C4(CC4)C3)n3ncc(Cl)c3n2)c(=O)[nH]1 [Example 218, 5-(3-chloro-7-(7,7-difluoro-5-azaspiro[2.4]heptan-5-yl)pyrazolo[1,5-a]pyrimidin-5-yl)pyrimidine-2,4(1H,3H)-dione]
62.6	8.26	CC1(C)CN(c2cc(-c3c[nH]c(=O)[nH]c3=O)nc3c(F)cnn23)CC1(F)F [Example 219, 5-(7-(3,3-difluoro-4,4-dimethylpyrrolidin-1-yl)-3-fluoropyrazolo[1,5-a]pyrimidin-5-yl)pyrimidine-2,4(1H,3H)-dione]
114	5.34	CC1(C)CN(c2cc(-c3c[nH]c(=O)[nH]c3=O)nc3c(Cl)cnn23)CC1(F)F [Example 220, 5-(3-chloro-7-(3,3-difluoro-4,4-dimethylpyrrolidin-1-yl)pyrazolo[1,5-a]pyrimidin-5-yl)pyrimidine-2,4(1H,3H)-dione]
74.9	13.1	CC1CN(c2cc(-c3c[nH]c(=O)[nH]c3=O)nc3ccnn23)CC1(F)F (stereo not drawn) [Example 221, 5-(7-(3,3-difluoro-4-methylpyrrolidin-1-yl)pyrazolo[1,5-a]pyrimidin-5-yl)pyrimidine-2,4(1H,3H)-dione]
